# Measurements as given in the supplement of paper PMC11061612.
# Assays:
# Assay in all cases: Bliss excess, mean over the matrix (fraction); higher = more synergy
# [1] = system: CAL-72 (Osteosarcoma)
# Outline: (§1)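 After 24 hours at 37°C and 5% CO2 in 1536-well plates, cells in DMEM/F12 or RPMI plus 10% FBS received two-drug dose matrices for 72 hours. Viability came from CellTiter-Glo 2.0 luminescence and was scaled as inhibition, anchored at 0 by vehicle wells and at 1 by blank wells. Combination Emax is taken as the second-highest inhibition in the matrix, and Bliss excess as the observed combination effect less EA + EB − EA·EB, with EA and EB the single-agent effects.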
# [2] = system: EW-11 (Ewing's Sarcoma)
# Outline: as §1
# [3] = system: LS-123 (Colorectal Carcinoma)
# Outline: as §1
# [4] = system: ESS-1 (Other Solid Carcinomas)
# Outline: as §1
# [5] = system: KYAE-1 (Esophageal Adenocarcinoma)
# Outline: as §1
# [6] = system: KS-1 (Glioblastoma)
# Outline: as §1
# [7] = system: BE-13 (T-Lymphoblastic Leukemia)
# Outline: as §1
# [8] = system: MHH-CALL-2 (B-Lymphoblastic Leukemia)
# Outline: as §1
# [9] = system: OE21 (Esophageal Squamous Cell Carcinoma)
# Outline: as §1
# [10] = system: OV-56 (Ovarian Carcinoma)
# Outline: as §1
Structure (SMILES),Bliss excess [1],Bliss excess [2],Bliss excess [3],Bliss excess [4],Bliss excess [5],Bliss excess [6],Bliss excess [7],Bliss excess [8],Bliss excess [9],Bliss excess [10]
"C=CCn1c(=O)c2cnc(Nc3ccc(N4CCN(C)CC4)cc3)nc2n1-c1cccc(C(C)(C)O)n1 [AZD1775] + CCc1c2c(nc3ccc(O)cc13)-c1cc3c(c(=O)n1C2)COC(=O)[C@]3(O)CC [SN-38] (first compound max 1 µM, partner max 0.3 µM)",0.017,-0.113,-0.0581,-0.0011,-0.0013,-0.0389,-0.0186,,,
"CN(CCO)CC[C@H](CSc1ccccc1)Nc1ccc(S(=O)(=O)NC(=O)c2ccc(N3CCC([C@@H](O)c4ccccc4-c4ccc(Cl)cc4)CC3)cc2)cc1S(=O)(=O)C(F)(F)F [AZD4320] + C1CN(CCC1(C(=O)N[C@@H](CCO)C2=CC=C(C=C2)Cl)N)C3=NC=NC4=C3C=CN4 [Capivasertib] (first compound max 1 µM, 7x7, partner max 3 µM)",-0.0184,0.0405,,0.0028,-0.031,-0.0435,-0.0175,-0.0126,0.0073,-0.0243
"CN(CCO)CC[C@H](CSc1ccccc1)Nc1ccc(S(=O)(=O)NC(=O)c2ccc(N3CCC([C@@H](O)c4ccccc4-c4ccc(Cl)cc4)CC3)cc2)cc1S(=O)(=O)C(F)(F)F [AZD4320] + C=CCn1c(=O)c2cnc(Nc3ccc(N4CCN(C)CC4)cc3)nc2n1-c1cccc(C(C)(C)O)n1 [AZD1775] (first compound max 1 µM, partner max 1 µM)",0.0392,0.091,,0.002,0.032,0.0327,0.046,0.14,,-0.0113
"CN(CCO)CC[C@H](CSc1ccccc1)Nc1ccc(S(=O)(=O)NC(=O)c2ccc(N3CCC([C@@H](O)c4ccccc4-c4ccc(Cl)cc4)CC3)cc2)cc1S(=O)(=O)C(F)(F)F [AZD4320] + CN(C)CCCOc1ccc(-c2ccc3ncc4c(c3c2)n(C2CCOCC2)c(=O)n4C)cn1 [AZD0156] (first compound max 1 µM, 7x7, partner max 1 µM)",-0.0292,-0.0102,,0.039,-0.0114,-0.0136,-0.0325,0.106,-0.0207,-0.015
"CN(CCO)CC[C@H](CSc1ccccc1)Nc1ccc(S(=O)(=O)NC(=O)c2ccc(N3CCC([C@@H](O)c4ccccc4-c4ccc(Cl)cc4)CC3)cc2)cc1S(=O)(=O)C(F)(F)F [AZD4320] + CS(=O)(=O)CCNCc1ccc(-c2ccc3ncnc(Nc4ccc(OCc5cccc(F)c5)c(Cl)c4)c3c2)o1 [Lapatinib] (first compound max 1 µM, 7x7, partner max 10 µM)",-0.0174,0.0342,,0.0668,0.0699,0.0137,0.0292,,,
"CN(CCO)CC[C@H](CSc1ccccc1)Nc1ccc(S(=O)(=O)NC(=O)c2ccc(N3CCC([C@@H](O)c4ccccc4-c4ccc(Cl)cc4)CC3)cc2)cc1S(=O)(=O)C(F)(F)F [AZD4320] + C[C@@H](Nc1cc(F)cc(F)c1)c1cc(C(=O)N(C)C)cc2c(=O)cc(N3CCOCC3)oc12 [AZD8186] (first compound max 1 µM, 7x7, partner max 3 µM)",,-0.0358,,-0.01,0.011,-0.0166,-0.0065,0.042,0.0243,-0.0031
"CN(CCO)CC[C@H](CSc1ccccc1)Nc1ccc(S(=O)(=O)NC(=O)c2ccc(N3CCC([C@@H](O)c4ccccc4-c4ccc(Cl)cc4)CC3)cc2)cc1S(=O)(=O)C(F)(F)F [AZD4320] + Cn1cnc2c(F)c(Nc3ccc(Br)cc3Cl)c(C(=O)NOCCO)cc21 [Selumetinib] (first compound max 1 µM, 7x7, partner max 3 µM)",-0.0089,-0.0786,,-0.0507,-0.0146,-0.0051,-0.0017,0.298,0.0225,-0.0063
"Cc1c2c(nn1C)CSCc1cc(n(C)n1)CSc1cc(c3ccccc3c1)OCCCc1c(C(=O)O)n(C)c3c-2c(Cl)ccc13 [AZD5991] + CC(=O)O[C@H]1C(=O)[C@@]2(C)[C@H]([C@H](OC(=O)c3ccccc3)[C@]3(O)C[C@H](OC(=O)[C@H](O)[C@@H](NC(=O)c4ccccc4)c4ccccc4)C(C)=C1C3(C)C)[C@]1(OC(C)=O)CO[C@@H]1C[C@@H]2O [Paclitaxel] (first compound max 1 µM, 7x7, partner max 3 µM)",-0.0853,0.0039,-0.0691,0.0341,0.0015,-0.0057,-0.0476,,,
"Cc1c2c(nn1C)CSCc1cc(n(C)n1)CSc1cc(c3ccccc3c1)OCCCc1c(C(=O)O)n(C)c3c-2c(Cl)ccc13 [AZD5991] + Nc1ccn([C@@H]2O[C@H](CO)[C@@H](O)C2(F)F)c(=O)n1 [Gemcitabine] (first compound max 1 µM, 7x7, partner max 0.3 µM)",0.0305,-0.0422,-0.0176,-0.0338,0.0034,-0.0354,-0.0088,,,
"C[C@@H]1COCCN1c1cc(C2([S@](C)(=N)=O)CC2)nc(-c2ccnc3[nH]ccc23)n1 [AZD6738] + C1CC(C1)(C(=O)[O-])C(=O)[O-].N.N.[Pt+2] [Carboplatin] (first compound max 10 µM, 7x7, partner max 10 µM)",-0.063,-0.041,-0.0239,0.0196,-0.015,-0.0536,-0.0436,,,
"C[C@@H](Nc1cc(F)cc(F)c1)c1cc(C(=O)N(C)C)cc2c(=O)cc(N3CCOCC3)oc12 [AZD8186] + C1CN(CCC1(C(=O)N[C@@H](CCO)C2=CC=C(C=C2)Cl)N)C3=NC=NC4=C3C=CN4 [AZD5363] (first compound max 10 µM, 7x7, partner max 10 µM)",-0.0293,-0.0265,-0.0327,-0.0165,-0.0101,-0.0233,-0.028,,,
"C[C@@H](Nc1cc(F)cc(F)c1)c1cc(C(=O)N(C)C)cc2c(=O)cc(N3CCOCC3)oc12 [AZD8186] + CC(=O)c1c(C)c2cnc(Nc3ccc(N4CCNCC4)cn3)nc2n(C2CCCC2)c1=O [Palbociclib] (first compound max 10 µM, 7x7, partner max 10 µM)",0.0075,-0.0053,0.0701,-0.0114,-0.0036,0.0069,-0.0165,,,
"C[C@@H](Oc1cc(-c2cnn(C3CCNCC3)c2)cnc1N)c1c(Cl)ccc(F)c1Cl [Crizotinib] + CC1=C(C(=CC=C1)Cl)NC(=O)C2=CN=C(S2)NC3=CC(=NC(=N3)C)N4CCN(CC4)CCO [Dasatinib] (first compound max 10 µM, 7x7, partner max 2 µM)",0.0078,-0.0571,0.0166,0.062,0,0.0499,0.0321,,,
"C[C@@H](Oc1cc(-c2cnn(C3CCNCC3)c2)cnc1N)c1c(Cl)ccc(F)c1Cl [Crizotinib] + Cn1cnc2c(F)c(Nc3ccc(Br)cc3Cl)c(C(=O)NOCCO)cc21 [Selumetinib] (first compound max 10 µM, 7x7, partner max 10 µM)",-0.0411,-0.0627,-0.0378,-0.0634,-0.0153,0.0483,-0.0251,,,
"CS(=O)(=O)CCNCc1ccc(-c2ccc3ncnc(Nc4ccc(OCc5cccc(F)c5)c(Cl)c4)c3c2)o1 [Lapatinib] + Cn1cnc2c(F)c(Nc3ccc(Br)cc3Cl)c(C(=O)NOCCO)cc21 [Selumetinib] (first compound max 10 µM, 7x7, partner max 10 µM)",-0.0254,-0.0259,0.0002,-0.0075,0.0206,-0.0387,-0.0253,,,
"CS(=O)(=O)CCNCc1ccc(-c2ccc3ncnc(Nc4ccc(OCc5cccc(F)c5)c(Cl)c4)c3c2)o1 [Lapatinib] + NC1(c2ccc(-c3nc4ccn5c(=O)[nH]nc5c4cc3-c3ccccc3)cc2)CCC1 [MK-2206] (first compound max 10 µM, 7x7, partner max 10 µM)",0.0288,-0.0003,0.0101,0.005,0.0176,-0.0185,-0.0842,,,
"O=C(c1cc(Cc2n[nH]c(=O)c3ccccc23)ccc1F)N1CCN(C(=O)C2CC2)CC1 [Olaparib] + CC1(C)CCC(CN2CCN(c3ccc(C(=O)NS(=O)(=O)c4ccc(NCC5CCOCC5)c([N+](=O)[O-])c4)c(Oc4cnc5[nH]ccc5c4)c3)CC2)=C(c2ccc(Cl)cc2)C1 [Venetoclax] (first compound max 10 µM, 7x7, partner max 1 µM)",-0.0215,0.0371,-0.0413,-0.0103,-0.0116,-0.0442,-0.0238,,,
"O=C(c1cc(Cc2n[nH]c(=O)c3ccccc23)ccc1F)N1CCN(C(=O)C2CC2)CC1 [Olaparib] + CN(CC[C@H](CSC1=CC=CC=C1)NC2=C(C=C(C=C2)S(=O)(=O)NC(=O)C3=CC=C(C=C3)N4CCC(CC4)[C@H](C5=CC=CC=C5C6=CC=C(C=C6)Cl)O)S(=O)(=O)C(F)(F)F)CCO [AZD4320] (first compound max 10 µM, 7x7, partner max 1 µM)",-0.0332,0.0141,-0.0647,0.0825,0.0363,-0.041,0.0096,,,
"O=C(c1cc(Cc2n[nH]c(=O)c3ccccc23)ccc1F)N1CCN(C(=O)C2CC2)CC1 [Olaparib] + COc1nnc2ccc(N3CCC(c4ccc(OCCN5CCN(C)C(=O)[C@H]5C)cc4)CC3)nn12 [AZD5153] (first compound max 10 µM, 7x7, partner max 1 µM)",-0.0056,-0.0063,-0.0084,-0.0139,-0.0202,-0.0205,-0.0681,,,
"O=C(c1cc(Cc2n[nH]c(=O)c3ccccc23)ccc1F)N1CCN(C(=O)C2CC2)CC1 [Olaparib] + Cc1c2c(nn1C)CSCc1cc(n(C)n1)CSc1cc(c3ccccc3c1)OCCCc1c(C(=O)O)n(C)c3c-2c(Cl)ccc13 [AZD5991] (first compound max 10 µM, 7x7, partner max 1 µM)",-0.0242,-0.0175,-0.0658,-0.0255,0.0031,-0.0463,0.0142,,,
"Cc1nc(-c2cn3c(n2)-c2ccc(-c4cnn(C(C)(C)C(N)=O)c4)cc2OCC3)n(C(C)C)n1 [Taselisib] + O=C(Nc1ccc2[nH]nc(-c3ccncc3)c2c1)[C@@H]1CCN(CC(=O)N2CCN(c3ccc(-c4ncccn4)cc3)CC2)C1 [SCH772984] (first compound max 10 µM, 7x7, partner max 5 µM)",-0.0562,-0.002,0.0028,0.0682,-0.0018,0.0097,-0.0347,,,
